Data taken from patent US7241754B2, “2-Desmethyl ansamycin compounds” (priority 2003, dated 2007).

How the values were obtained:
[1] = molecular target: Hsp90 (Homo sapiens, UniProt P07900); assay: Hsp90 filter binding assay
[2] = test system: SKBr3 cells; assay: Cytotoxicity against SKBr3 cells (CellTiter-Glo, 72 h); format: cell-based; conditions: Homo sapiens, SK-BR-3, 72 h, read-out: Cytotoxicity against SKBr3 Cells (IC50, μM)
Procedure: Cytotoxicity was determined with SKBr3 cells (ATCC HTB-30), a breast cancer cell line. […] Cells were plated into 96-well microtiter back plates at 4,000 cells per 50μL per well, overnight. Serial 10x dilutions of test compound (10 μM to 0.1 pM) in cell culture media were prepared with a Biomek 2000 apparatus, using the protocols of deeper-1000 μL-media and deeper-1000 μL-dilution. 50 μL of each dilution was added to wells containing cells. Each compound or control (medium only) was tested in duplicate. For each assay, the wells contained a final volume of 100 μL (50 μL of cells and 50 μL of compound dilution). […] CellTiter-Glo Luminescent Reagent (Promega #G7573) (100 μL) was added to each well. The well contents were mixed for 5 min and the plates were kept at room temperature for another 30 min. Luminescence was recorded using a Wallac VICTOR^2 Multilabel Counter (PerkinElmer) and IC50 values were determined using Kaleidagraph software (Synergy Software).

[3] = test system: CCFT-CEM cells; assay: Cytotoxicity against CCFT-CEM cells; conditions: read-out: IC50, cytotoxicity against CCFT-CEM cells

In the case of `CO[C@H]1C[C@H](C)Cc2cc(O)cc(c2)NC(=O)CC(O)CC[C@H](OC)[C@@H](OC(N)=O)/C(C)=C/[C@H](C)[C@H]1O` (some centres unmarked) [III], the Kd [1] is reported as 1 µM and the IC50 [2] is reported as over 5 µM.

Molecule `COC1CCC=CC(=O)Nc2cc(c(Br)c(O)c2Br)CC(C)CC(OC)C(O)C(C)C=C(C)C1OC(N)=O` (centres unmarked) [Compound 1-M] has a Kd [1] of 5.9 µM and an IC50 [2] of over 5 µM.

For `COC1CCC=CC(=O)Nc2cc(O)c(Br)c(c2)CC(C)CC(OC)C(O)C(C)C=C(C)C1OC(N)=O` (centres unmarked) [Compound 1-K], the Kd [1] was 0.14 µM and the IC50 [2] was 0.8 µM.

In the case of `CO[C@H]1C[C@H](C)Cc2cc(O)cc(c2)NC(=O)CC(O)CC[C@H](OC)[C@@H](O)/C(C)=C/[C@H](C)[C@H]1O` (some centres unmarked) [IV], the Kd [1] is reported as 17 µM and the IC50 [2] is reported as over 5 µM.

With `COC1CCC=CC(=O)Nc2cc(cc(O)c2Br)CC(C)CC(OC)C(O)C(C)C=C(C)C1OC(N)=O` (centres unmarked) [Compound 1-J] the Kd [1] was 1.7 µM and the IC50 [2] was over 5 µM.

Molecule `COC1CCC=CC(=O)Nc2cc(cc(O)c2CN2CCOCC2)CC(C)CC(OC)C(O)C(C)C=C(C)C1OC(N)=O` (centres unmarked) [Compound 1-G] has a Kd [1] of 0.64 µM and an IC50 [2] of over 5 µM.

For `COC1CCC=CC(=O)Nc2cc(c(CN(C)CCN(C)C)c(O)c2Br)CC(C)CC(OC)C(O)C(C)C=C(C)C1OC(N)=O` (centres unmarked) [Compound 1-N], the Kd [1] was 31 µM and the IC50 [2] was over 5 µM.

`CO[C@H]1C[C@H](C)Cc2cc(O)cc(c2)NC(=O)/C=C/CC[C@H](OC)[C@@H](OC(N)=O)/C(C)=C/[C@H](C)[C@H]1O` [Compound 1-A] showed a Kd [1] of 0.017 µM, an IC50 [2] of 0.85 µM and an IC50 [3] of 2.5 µM.

Molecule `COc1cc2cc(c1)NC(=O)C=CCCC(OC)C(OC(N)=O)C(C)=CC(C)C(O)C(OC)CC(C)C2` (centres unmarked) [Compound 1-D] has a Kd [1] of 0.51 µM and an IC50 [2] of 6 µM.

`COC1=C2C[C@@H](C)C[C@H](OC)[C@H](O)[C@@H](C)/C=C(\C)[C@H](OC(N)=O)[C@@H](OC)/C=C\C=C(/C)C(=O)NC(=CC1=O)C2=O` [Geldanamycin, reference compound] showed an IC50 [2] of 0.023 µM.

Work on `COC1CCC=CC(=O)Nc2cc(cc(OCCN(C)C)c2)CC(C)CC(OC)C(O)C(C)C=C(C)C1OC(N)=O` (centres unmarked) [Compound 1-C] yielded a Kd [1] of 0.23 µM and an IC50 [2] of over 10 µM.

In the case of `COC(=O)COc1cc2cc(c1)NC(=O)C=CCCC(OC)C(OC(N)=O)C(C)=CC(C)C(O)C(OC)CC(C)C2` (centres unmarked) [Compound 1-H], the Kd [1] is reported as 0.36 µM and the IC50 [2] is reported as over 5 µM.

With `COC1CCC=CC(=O)Nc2cc(cc(OCC(N)=O)c2)CC(C)CC(OC)C(O)C(C)C=C(C)C1OC(N)=O` (centres unmarked) [Compound 1-E] the Kd [1] was 0.44 µM and the IC50 [2] was over 5 µM.

Molecule `COC1CCC=CC(=O)Nc2cc(cc(O)c2CN(C)C)CC(C)CC(OC)C(O)C(C)C=C(C)C1OC(N)=O` (centres unmarked) [Compound 1-F] has a Kd [1] of 0.2 µM and an IC50 [2] of 0.63 µM.

Molecule `C=CCOc1cc2cc(c1)NC(=O)C=CCCC(OC)C(OC(N)=O)C(C)=CC(C)C(O)C(OC)CC(C)C2` (centres unmarked) [Compound 1-B] has a Kd [1] of 1 µM and an IC50 [2] of over 5 µM.

`COC1CCC=CC(=O)Nc2cc(cc(OCC(=O)O)c2)CC(C)CC(OC)C(O)C(C)C=C(C)C1OC(N)=O` (centres unmarked) [Compound 1-I] showed a Kd [1] of 0.93 µM and an IC50 [2] of over 5 µM.
